Assays:
RNase L [1] = assay: rRNA cleavage assay: activation of RNase L in L929 cell extracts; format: biochemical, murine; conditions: for final concentration at which RNase L is activated to degrade rRNA to specific cleavage products / concentration dependence of rRNA degradation / potency in rRNA degradation relative to authentic p3 A3: L929 cell extracts; for final concentration at which RNase L is activated to degrade rRNA to specific cleavage products: "as low as"; for concentration dependence of rRNA degradation / potency in rRNA degradation relative to authentic p3 A3 / biological activity (RNase L binding and activation) relative to authentic 2-5A: in words
Method: FIG. 2 represents a rRNA cleavage assay with 2-azido-p3 A3 and 8-azido-p3 A3 L929 cell extracts were incubated in the absence (lane 4) or presence of p3 A3 (lane 1), 2-azido-p3 A3 (lane 2), or 8-azido-p3 A3 (lane 3) at 1 x 10^-8 M final concentrations. The positions of 28S and 18S rRNA, and the positions of RNase L specific cleavage products ("SCP"), are indicated.
Activation of RNase L by the compounds of the invention was also measured in a ribosomal RNA cleavage assay using L929 cell extracts. The extracts were prepared in glycerol buffer in 15 microliters final volume as described by Kariko et al., Biochem. Biophys. Res. Commun. 128:695-698 (1985).

[2] = system: 2-5A binding proteins from L929 cells (believed to be forms of RNase L); assay: Photoaffinity labelling / covalent cross-linking of 2-5A binding proteins in interferon-treated L929 cell extracts (SDS-PAGE, autoradiography); parameters: species or system murine; conditions: for UV exposure time for maximal photo-crosslinking: 254 nm, 0° C.; for molecular weight of protein(s) specifically photolabelled / cross-linked: L929 cell extracts; for molecular weight of protein(s) specifically photolabelled / cross-linked / number of proteins photolabelled / cross-linked: 60 s UV; for number of proteins photolabelled / cross-linked: interferon-treated L929 cell extracts
Method: FIG. 3A is an autoradiogram following SDS-PAGE of interferon-treated L929 cell extracts incubated with [gamma-^32 P]2-azido-p3 A3 at 1×10^-6 M in the absence (lane 1) or presence of p3A3 at 1×10^-5 M and 1×10^-4 M (lanes 2 and 3, respectively).The samples were UV-irradiated for 60 seconds at 0° C. prior to electrophoresis. Photolabelled proteins were detected by autoradiography. Molecular weight standards are indicated.
FIG. 4A is an autoradiogram following SDS-PAGE of interferon treated L929 cell extracts incubated with [alpha-^32 P]8-azido-p3 A3 at 1×10^-6 M in the absence (lanes 1 and 2) or presence of the following: p3 A3 at 1×10^-4 M (lane 3); p3 A3 at 5×10^-4 M (lane 4); or 3'-5'A3 at 5×10^-4 M (lane 5). The samples were UV irradiated (lanes 2-6) for 60 seconds at 0° C. prior to electrophoresis. Under identical experimental conditions, the L929 cell extract was incubated with p3 A4 [^32 P]pCp at 1×10^-8 M (lane 6). Photolabelled proteins were detected by autoradiography.
Ten microliters of L929 cell extracts (100 micrograms protein/assay) were combined with 10 microliters of a buffer (140 mM NaCl, 35 mM Tris-HCl, pH 7.5) and were incubated in the presence of 1×10^-6 M [gamma-^32 p]2-azido -p3 A3 (0.9 microCi/nmol) or 1×10^-6 M [alpha-^32 p]8-azido -p3 A3 (0.9 microCi/nmol) or 1×10^-9 M p3 A4 [^32 P]pCp (3 mCi/nmol) in a 30 microliter final volume. The samples, after incubation in microcentrifuge tubes at 0° C. for 90 minutes, were transferred into ice-mold porcelain spot plates and photolysed for 60 seconds using a 254 nm UVG-11 Mineralight lamp (Ultraviolet Products, Inc.) at a distance of 2 cm (1.0 J/m^2). Sixty microliters of a reductive, protein-solubilizing mixture (15.4 mg/ml dithiothreitol, 25% w/v sucrose, 2.5% sodium dodecylsulfate, 25 mM TrisHCl, pH 8.0, 0.0025% pyronine Y) were added to the samples. Photo-incorporation of the ^32 P-labeled 2-azido-p3 A3 and 8-azido-p3 A3 into the L929 protein was determined by SDS-PAGE (Lamelli, Nature (London) 227:680-685 (1970)). The SDS-PAGE gels were stained with Coomassie blue, dried and subject to autoradiography at -70° C. with X-Omat film (Kodak).

RNase L [3] = assay: Core-cellulose assay: activation of partially purified RNase L to hydrolyze poly(U)[^32 P]pCp; format: biochemical, murine; conditions: in words
From the text: The recently developed core cellulose assay of Silverman, Anal. Biochem. 144:450-460 (1985), which involves the immobilization and partial purification of RNase L on 2-5A core-cellulose, was used to measure the ability of 8-azido-p3 A3 to activate RNase L. For this purpose, poly(U)[^32 P]pCp was synthesized from poly(U) using T4 RNA ligase, as described by Silverman. 8-Azido-p3 A3 (solid circle data

RNase L [4] = assay: rRNA cleavage assay with photolabelled RNase L/8-azido-p3 A3 complex; format: biochemical, murine; conditions: 1×10^-6 M 8-azido-p3 A3, 60 s UV 254 nm; in words
Method: Ten microliters of L929 cell extract (100 microgram protein/assay) were combined with ten microliters buffer (140 mM NaCl, 35 mM Tris-HCl, pH 7.5) and were incubated in the presence of 1×10^-6 M 8-azido-p3 A3 in a 30 microliter final volume. The sample was transferred to ice-cold porcelain spot plates and photolysed for 60 second using a 254 nm UVG-11 Mineralight lamp at a distance of 2 cm (1.0 J/m^2) to photolabel the RNase L/8-azido-p3 A3 complex. A ribosomal RNA cleavage assay was performed as described above, but using the photolabelled complex.

RNase L [5] = assay: Radiobinding assay: competition with p3 A4 [^32 P]pCp for binding to RNase L in L929 cell extracts; parameters: species or system murine; conditions: in words
Method: RNase L was obtained from L929 cells by the following procedure. The L929 cells were maintained in monolayer culture in Dulbecco's modified Eagle medium supplemented with 5% bovine serum. Monolayers were tested with 200 units/ml of mouse interferon for 20 hours. Cell extracts of the L929 cells were prepared by collecting the cells by trypsinization, washing them once with phosphate-buffered saline and lysing the cells in NP40 buffer according to the method of Silverman, et al., Eur. J. Biochem. 124:131-138 (1982).
The ability of 8-azido-p3 A3 to compete with p3 A4 -[^32 P]pCp for binding to RNase L in the L929 cell extracts was compared to p3 A3 using radiobinding assays (50 micrograms of protein/assay) according to the method of Knight et al., Methods Enzymol. 79:216-227 (1981). […] 8-Azido-p3 A3 (FIG. 1A, solid circle data points) binds to RNase L with an IC50 of 2×10^-9 M, which is equivalent to the IC50 of authentic p3 A3 (FIG. 1A, solid triangle data points).

| Substance | final concentration at which RNase L is activated to degrade rRNA to specific cleavage products (RNase L [1]) | concentration dependence of rRNA degradation (RNase L [1]) | potency in rRNA degradation relative to authentic p3 A3 (RNase L [1]) | biological activity (RNase L binding and activation) relative to authentic 2-5A (RNase L [1]) | size of photolabelled protein ([2]; 1×10^-6 M [gamma-^32 P]2-azido-p3 A3, 60 s UV, protein a) | UV exposure time for maximal photo-crosslinking [2] [s] | molecular weight of protein(s) specifically photolabelled / cross-linked [2] | number of proteins photolabelled / cross-linked [2] | potency in activating RNase L relative to authentic p3 A3 (RNase L [3]) | rRNA cleavage by RNase L after photolabelling (RNase L [4]) | inhibition of p3 A4 [^32 P]pCp binding to RNase L (RNase L [5]) |
| --- | --- | --- | --- | --- | --- | --- | --- | --- | --- | --- | --- |
| 5'-0-triphosphoryl-(2-azidoadenylyl)(2'-5')2-azidoadenylyl(2'5')2-azidoadenosine [2-azido-p3 A3] | 10^-9 M | concentration dependent | as potent as authentic p3 A3 | almost identical to that of authentic 2-5A | 185,000 dalton | 60 | 185,000 | one | – | – | – |
| 5'-0-triphosphoryl-(8-azidoadenylyl)(2'-5')8-azidoadenylyl(2'-5')8-azidoadenosine [8-azido-p3 A3] | 10^-9 M | concentration dependent | as potent as authentic p3 A3 | almost identical to that of authentic 2-5A | – | 60 | 46,000-158,000 | six | equipotent to authentic p3 A3 | observed to cleave 18S and 28S rRNA to the same specific cleavage products characteristic of RNase L activation by 8-azido-p3 A3 without photoactivation | inhibited p3 A4 [^32 P]pCp binding to RNase L in a concentration dependent manner |
